Source: patent publication US9346820B2, “HIV-1 protease inhibitors having gem-di-fluoro bicyclic P2-ligands” (priority 2013, dated 2016)

Columns and labels:
[1] = test system: triple culture of rat-derived astrocytes, pericytes and monkey-derived endothelial cells; assay: Apparent BBB permeability coefficient, in vitro BBB model (BBB Kit); settings: 100 μM on luminal (blood) side, 30 min, brain side measured at 230 nm
Description: (§1) The BBB Kit™ was kept at −80° C. until thawing on day 0 of the experiments. Nutritional medium was added to both brain and blood sides of the wells. This solution consists of DMEM F-12 medium with FCS 10% v/v, heparin 100 μg/ml, basic fibroblast growth factor (bFGF) 1.5 ng/ml, insulin 5 μg/ml, transferrin 5 μg/ml, sodium selenite 5 ng/ml, hydrocortisone 500 nM and gentamycin 50 μg/ml. Fresh medium was added 3 hours after thawing following the manufacturer's instructions, and 24 hours later. The plates were incubated at 37° C. until day 4 of the experiment when the condition of astrocytes was checked under a light microscope. Following this, the integrity of the collagen-coated membrane was verified by the measurement of the transendothelial electrical resistance (TEER) using an ohmmeter provided by the manufacturer. […] Detailed information regarding the components of the BBB Kit as well as its mechanisms can be seen by accessing the manufacturer's website http://www.pharmacocell.co.jp/en/bbb/index_e.html.
(§2) Standard curves were generated for each compound on a light spectrophotometer as previously described. 100 μM of each compound was added to the luminal (blood side) of the wells, incubated at 37° C. for 30 minutes and then, the amount of drug that crossed the in vitro BBB was collected and measured under a light spectrophotometer at 230 nanometer absorbances.
(§3) Papp was calculated using the following mathematical formula: […]
(§4) This model (BBB Kit™) is thought to represent an in vitro BBB model for drug transport assays, permitting an adequate cross-talk of the cell lines involved and provide a way to test an apparent passage of small molecules across the BBB as previously described by Nakagawa et al. (41). […] The concentrations of each compound that permeated into the abluminal interface (termed “brain side”) were determined using a spectrophotometer, 30 min after the addition of each drug to the wells.
(§5) The mathematical formula used for the calculation of Papp is described in Materials and Methods.

[2] = as above; settings: rat and monkey
Description: as §1, §2, §3, §4, §5

[3] = test system: HIV-1GRL-04810^RP18, and HIV-1GRL-05010^RP10; assay: p24 assay, the two GRL-selected variants taken together; format: cell-based; settings: Human immunodeficiency virus 1, read-out: EC50 values against HIV-1GRL-04810^RP18 and HIV-1GRL-05010^RP10
Description: (§6) The susceptibility of HIV-1LAI to various drugs was determined as previously described with minor modifications. Briefly, MT-2 cells (10^4/ml) were exposed to 100 50% tissue culture infectious doses (TCID50) of HIV-1LAI in the presence or absence of various concentrations of drugs in 96-well microculture plates and were incubated at 37° C. for 7 days. After 100 μl of the medium was removed from each well, 3-(4,5-dimetylthiazol-2-yl)-2,5-diphenyltetrazolium bromide (MTT) solution (10 μl, 7.5 mg/ml in phosphate-buffered saline) was added to each well in the plate, followed by incubation at 37° C. for 2 h. […] All assays were performed in duplicate or triplicate. […] To determine the sensitivity of primary HIV-1 isolates to drugs, phytohemagglutinin-stimulated peripheral blood mononuclear cells (PHA-PBMC) (10^6/ml) were exposed to 50 TCID50 of each primary HIV-1 isolate and cultured in the presence or absence of various concentrations of drugs in 10-fold serial dilutions in 96-well microculture plates. In determining the drug susceptibility of certain laboratory HIV-1 strains, MT-4 cells were employed as target cells as previously described with minor modifications. In brief, MT-4 cells (10^5/ml) were exposed to 100 TCID50 of drug-resistant HIV-1 strains in the presence or absence of various concentrations of drugs and were incubated at 37° C. On day 7 of culture, the supernatants were harvested and the amounts of p24 Gag protein were determined by using a fully automated chemiluminescent enzyme immunoassay system (Lumipulse F: Fujirebio Inc., Tokyo). […] All assays were performed in duplicate or triplicate. PHA-PBMs were derived from a single donor in each independent experiment. Thus, for obtaining the data, three different donors were recruited.

[4] = test system: HIV-1NL4-3; assay: p24 Gag production inhibition in MT-4 cells, wild-type laboratory strain; format: cell-based; settings: Human immunodeficiency virus 1, MT4; MT-4 cells, p24 Gag endpoint; read-out: EC50 HIV-1NL4-3
Description: as §6

[5] = test system: HIV-1ERS104pre; assay: p24 Gag production inhibition in PHA-PBMs, wild-type clinical isolate; format: cell-based; settings: Human immunodeficiency virus 1; PHA-PBMs, p24 Gag endpoint; read-out: EC50 HIV-1ERS104pre (X4)
Description: (§7) All primary HIV-1 strains were passaged once or twice in 3-day-old phytohemagglutinin activated peripheral blood mononuclear cells (PHA-PBM), and the culture supernatants were stored at −80° C. until use.
as §6

[6] = test system: HIV-1GRL04810^RP18; assay: microbe, parasite or virus in culture; format: cell-based; settings: Human immunodeficiency virus 1, MT4, read-out: EC50 HIV-1GRL04810^RP18
Description: as §6
(§8) The amounts of p24 were measured every two days for up to 7 days.

[7] = test system: HIV-1GRL05010^RP10; assay: microbe, parasite or virus in culture; format: cell-based; settings: Human immunodeficiency virus 1, MT4, read-out: EC50 HIV-1GRL05010^RP10
Description: as §6, §8

[8] = test system: HIV-1ATV^R5μM; assay: microbe, parasite or virus in culture; format: cell-based; settings: Human immunodeficiency virus 1, MT4, read-out: EC50 HIV-1ATV^R5μM
Description: as §6

[9] = test system: HIV-1LPV^R5μM; assay: microbe, parasite or virus in culture; format: cell-based; settings: Human immunodeficiency virus 1, MT4, read-out: EC50 HIV-1LPV^R5μM
Description: as §6

[10] = test system: HIV-1SQV^R5μM; assay: microbe, parasite or virus in culture; format: cell-based; settings: Human immunodeficiency virus 1, MT4, read-out: EC50 HIV-1SQV^R5μM
Description: as §6

[11] = test system: HIV-1APV^R5μM; assay: microbe, parasite or virus in culture; format: cell-based; settings: Human immunodeficiency virus 1, MT4, read-out: EC50 HIV-1APV^R5μM
Description: as §6

[12] = test system: HIV-1MDR/G; assay: microbe, parasite or virus in culture; format: cell-based; settings: Human immunodeficiency virus 1, read-out: EC50 HIV-1MDR/G (X4)
Description: as §7, §6

[13] = test system: HIV-1MDR/B; assay: microbe, parasite or virus in culture; format: cell-based; settings: Human immunodeficiency virus 1, read-out: EC50 HIV-1MDR/B (X4)
Description: as §7, §6

[14] = test system: HIV-1MDR/C; assay: microbe, parasite or virus in culture; format: cell-based; settings: Human immunodeficiency virus 1, read-out: EC50 HIV-1MDR/C (X4)
Description: as §7, §6

[15] = test system: HIV-1MDR/JSL; assay: microbe, parasite or virus in culture; format: cell-based; settings: Human immunodeficiency virus 1, read-out: EC50 HIV-1MDR/JSL (R5)
Description: as §7, §6

[16] = test system: HIV-1MDR/MM; assay: microbe, parasite or virus in culture; format: cell-based; settings: Human immunodeficiency virus 1, read-out: EC50 HIV-1MDR/MM (R5)
Description: as §7, §6

[17] = test system: HIV-1MDR/TM; assay: microbe, parasite or virus in culture; format: cell-based; settings: Human immunodeficiency virus 1, read-out: EC50 HIV-1MDR/TM (X4)
Description: as §7, §6

[18] = Cytotoxicity (CC50), MTT assay; format: cell-based; settings: human; 50% cytotoxicity; read-out: CC50
Description: The susceptibility of HIV-1LAI to various drugs was determined as previously described with minor modifications. Briefly, MT-2 cells (10^4/ml) were exposed to 100 50% tissue culture infectious doses (TCID50) of HIV-1LAI in the presence or absence of various concentrations of drugs in 96-well microculture plates and were incubated at 37° C. for 7 days. After 100 μl of the medium was removed from each well, 3-(4,5-dimetylthiazol-2-yl)-2,5-diphenyltetrazolium bromide (MTT) solution (10 μl, 7.5 mg/ml in phosphate-buffered saline) was added to each well in the plate, followed by incubation at 37° C. for 2 h. […] All assays were performed in duplicate or triplicate. […] In determining the drug susceptibility of certain laboratory HIV-1 strains, MT-4 cells were employed as target cells as previously described with minor modifications. In brief, MT-4 cells (10^5/ml) were exposed to 100 TCID50 of drug-resistant HIV-1 strains in the presence or absence of various concentrations of drugs and were incubated at 37° C. On day 7 of culture, the supernatants were harvested and the amounts of p24 Gag protein were determined by using a fully automated chemiluminescent enzyme immunoassay system (Lumipulse F: Fujirebio Inc., Tokyo). […] All assays were performed in duplicate or triplicate. PHA-PBMs were derived from a single donor in each independent experiment. Thus, for obtaining the data, three different donors were recruited.

[19] = test system: HIV-1LAI; assay: Antiviral activity of brain-side medium from the BBB assay, MTT assay in MT-2 cells; format: cell-based; settings: HIV-1LAI
Description: The “brain-side” of the medium containing a compound collected in the BBB in vitro assay, was subjected to antiviral assays. Two HIV-1 isolates were employed, HIV-1LAI (Panel A) and HIV-1ERS104pre (Panel B). […] Dilution ranges were between 10-fold and 10,000-fold, and the percentage of viral inhibition was used as an endpoint. […] Assays were conducted in duplicate and error bars show standard deviations.
The assay was carried out using 10, 100, 1000 and 10000 times-diluted brain-side stocks of compounds.

## Cn1c(=O)c2c(ncn2C)n(C)c1=O [caffeine]
[1]
  Final abluminal tracer concentration: 6.60 µM
[2]
  Papp at 30 min, 100 μM: 100 ×10⁻⁶ cm/s

## CC(C)CN(C[C@@H](O)[C@H](Cc1ccccc1)NC(=O)O[C@H]1CCOC1)S(=O)(=O)c1ccc(N)cc1 [APV, Amprenavir]
[3]
  EC50: > 1000 nM
[4]
  EC50: 81 nM
[5]
  EC50: 29.5 nM
[6]
  EC50: > 1000 nM
[7]
  EC50: > 1000 nM
[8]
  EC50: > 1000 nM
[9]
  EC50: 33 nM
[10]
  EC50: 435 nM
[11]
  EC50: > 1000 nM
[12]
  EC50: 310 nM
[13]
  EC50: 490 nM
[14]
  EC50: 210 nM
[15]
  EC50: 630 nM
[16]
  EC50: 270 nM
[17]
  EC50: 328 nM
[18]
  CC50 at 7 days: > 100000 nM

## CC(C)(C)NC(=O)[C@@H]1CN(Cc2cccnc2)CCN1C[C@@H](O)C[C@@H](Cc1ccccc1)C(=O)N[C@H]1c2ccccc2C[C@H]1O [IDV, Indinavir]
[19]
  suppression levels of brain-side preparations compared (FIG. 5A): less than those of GRL-04810^brain and GRL-05010^brain

## Cc1cccc(C)c1OCC(=O)N[C@@H](Cc1ccccc1)[C@@H](O)C[C@H](Cc1ccccc1)NC(=O)[C@H](C(C)C)N1CCCNC1=O [LPV, Lopinavir]
[4]
  EC50: 35 nM
[5]
  EC50: 33 nM
[9]
  EC50: > 1000 nM
[15]
  EC50: > 1000 nM
[18]
  CC50 at 7 days: 26800 ± 900 nM
